Publication PMC12865133, “Macrocyclic Molecular Glues for the 14‐3‐3/ChREBP Interaction: Affinity and Cooperativity in an Inverse Relationship” (Angewandte Chemie (International Ed. in English), 2025)
One block for each molecule: values may come before it.

How the values were obtained:
14-3-3β = target: T1, 14-3-3β (Homo sapiens, UniProt P31946); assay: FA titration of 14-3-3β to FITC-labeled macrocycle (EC50 used for selectivity assay); format: binding; details: 14-3-3β concentration equal to/around EC50 for FITC-labeled macrocycle (10 nM)
T1 construct: The full-length human 14-3-3β and γ proteins; made in house; host or cells: Escherichia coli BL21(DE3)
T1 sequence (P31946 1-246): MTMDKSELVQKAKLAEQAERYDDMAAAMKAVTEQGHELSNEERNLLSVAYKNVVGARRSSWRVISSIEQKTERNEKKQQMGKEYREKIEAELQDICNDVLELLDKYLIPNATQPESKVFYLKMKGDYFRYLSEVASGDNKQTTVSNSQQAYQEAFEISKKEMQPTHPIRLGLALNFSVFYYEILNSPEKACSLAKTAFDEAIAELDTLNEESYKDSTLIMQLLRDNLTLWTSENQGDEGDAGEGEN
Protocol: For the 2D titrations, 14-3-3β was titrated in a 2-fold dilution series (starting at 250 µM) to a mix of fluorescein-labeled macrocycle (5 nM) against varying fixed concentrations of ChREBP (2-fold dilution starting from 20 µM (replicate 1) or 10 µM (replicate 2)).
Dilution series were made in a polystyrene (non-binding) low-volume Corning Black Round Bottom 384-well plates (Corning 4514 or 4511). […] Wells containing 5 nm FITC-macrocycle were used to set as G-factor. All data were analyzed using Origin2023b and fitted using a four-parameter logistic model. Each measurement was performed in three independent experiments.

14-3-3/ChREBP complex = target: T2, 14-3-3/ChREBP complex (Homo sapiens, UniProt P31946+Q9NP71); assay: 2D FA titrations fitted to thermodynamic cooperativity model; details: for cooperativity (α) factor: 2D FA, 14-3-3β titrated to FITC-labeled MG with varying ChREBP peptide, KD^II fixed 1.5 µM, mean of n = 2; for α1 / α / Kd: 2D FA model fit; for α1: dimeric 14-3-3 model; for Kd: KDI
T2 sequence (P31946 1-246): T1 sequence (P31946 1-246)
T2 sequence (Q9NP71 117-142 partner limits assumed): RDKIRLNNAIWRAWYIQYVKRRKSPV

14-3-3γ [1] = target: T3, 14-3-3γ (Homo sapiens, UniProt P61981); assay: Isothermal titration calorimetry, peptide titrated to 14-3-3γ; format: binding; details: ITC, 200 μM peptide titrated to 20 μM 14-3-3γ, mean ± SD, n=3; for ΔS: 25 mM HEPES pH 8.0, 100 mM NaCl, 10 mM MgCl2, 500 µM TCEP, 25 °C; for ΔG / ΔH: pH 8.0, 25 °C
T3 sequence (P61981 1-247): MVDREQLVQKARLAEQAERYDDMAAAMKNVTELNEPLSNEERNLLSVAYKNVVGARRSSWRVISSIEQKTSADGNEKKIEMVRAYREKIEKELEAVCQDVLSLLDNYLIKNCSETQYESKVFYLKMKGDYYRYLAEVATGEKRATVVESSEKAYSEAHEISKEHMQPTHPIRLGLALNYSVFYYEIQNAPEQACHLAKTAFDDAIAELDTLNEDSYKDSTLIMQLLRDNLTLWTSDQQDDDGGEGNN
Protocol: Final dialysis fluid from protein expression was frozen as 2 mL aliquots to serve as ITC buffer (25 mM HEPES pH 8.0, 100 mM NaCl, 10 mM MgCl2, 500 µM TCEP). 14-3-3γ and peptide were dissolved and diluted in this buffer to 20 μM and 200 μM, respectively. Samples were degassed for 10 min prior to measurement at 450 mmHg. The reference cell was filled with 300 µL degassed MilliQ and the sample cell was filled with 300 µL of peptide or protein mixture. Syringe was loaded with at least 200 µL protein or peptide sample. Measurements were performed on an Affinity ITC LV (TA instruments), with injection size set to 2 µL, stirring speed of 125 rpm and temperature at 25 ̊C. The baseline was automatically adjusted with NITPIC, analysis of data was done in SEDPHAT, and images were produced with GUSSI software. Data and errors represent mean ± SD, n=3 replicates.

14-3-3γ [2] = target: T3, 14-3-3γ; assay: Surface plasmon resonance, Twinstrep-tagged 14-3-3γ captured on StrepTactinXT chip; details: for KD, affinity fit: SPR steady-state 1:1 fit; for kon: pH 7.4, read-out: ka, kinetic fit
Protocol: The SPR experiments were performed at 25 °C using a Biacore X100 (Cytiva) and a 200 nm Strep-Tactin XT derivatized linear polycarboxylate hydrogel chip, medium charge density (XanTec Bioanalytics). All proteins and peptides were dissolved in fresh running buffer prepared with ultrapure water and filtered through a 0.2 μm filter (10 mM HEPES pH 7.4, 200 mM NaCl, 50 μM EDTA, 0.005% P20). First the surface was conditioned with a 1 min injection of 3 M Guanidine HCl. The Biacore X100 was primed with running buffer. […] Flow cell 1 was left blank as a reference surface. […] Between cycles of one multi-cycle measurement, no regeneration step was performed due to the complete dissociation of the analyte. […] The data collection rate of the instrument is 1 datapoint/sec. […] All parameters were fitted using global fitting, including the Rmax, because a single immobilization was used for all analyte concentrations. The RI was set constant at 0 RU. Next to kinetic fitting, the affinity fit was made using a 1:1 binding model by plotting the response (RU) at steady state over the analyte concentration (Fig. S2).

14-3-3γ [3] = target: T3, 14-3-3γ; assay: Fluorescence Anisotropy protein titration of 14-3-3γ to FITC-labeled macrocycles; format: binding; details: FA, 14-3-3γ titrated (2-fold from 250 µM) to FITC-labeled peptide (10 nM in Fig. 2a, 5 nM in method), 10 mM HEPES pH 7.4, 150 mM NaCl, 0.1% Tween20, 0.1% BSA, rt, mean ± SD, n = 3
Protocol: Wells containing 5 nm FITC-macrocycle were used to set as G-factor. All data were analyzed using Origin2023b and fitted using a four-parameter logistic model. Each measurement was performed in three independent experiments.

[4] = tested on: 14-3-3β/macrocycle complex; assay: FA selectivity assay, acetylated 14-3-3 client peptides titrated to 14-3-3β/macrocycle complex; format: binding, human; details: acetylated client peptide titrated from 100 μM to 14-3-3β (at EC50) and FITC-labeled macrocycle (10 nM), n = 3
[5] = replicate 1 (ChREBP from 20 μM)
[6] = replicate 2 (ChREBP from 10 μM)
[7] = SPR, 1:1 model, 25 °C, 10 mM HEPES pH 7.4, 200 mM NaCl, replicate 1
[8] = SPR, 1:1 model, 25 °C, pH 7.4, average ± SD, n=2, SD
[9] = SPR, 1:1 model, 25 °C, pH 7.4, replicate 1
[10] = SPR, 1:1 model, 25 °C, pH 7.4, replicate 2

Molecule: NCCCC[C@@H](C(=O)NCCC(=O)N[C@@H](CCCCNC(=S)Nc1ccc2c(c1)C(=O)OC21c2ccc(O)cc2Oc2cc(O)ccc21)C(N)=O)N1CCc2cn(nn2)-c2ccc(cc2)C[C@H](NC(=O)[C@@H](N)COP(=O)(O)O)C(=O)N[C@@H](CO)CC(=O)NCCC(=O)N[C@@H](Cc2ccc([N+](=O)[O-])cc2)C1=O [Macrocycle 2]
α1 (14-3-3/ChREBP complex; replicate 1): 18.8
α1 (14-3-3/ChREBP complex; replicate 2): 8.3
α (14-3-3/ChREBP complex; [5]): 46
α (14-3-3/ChREBP complex; [6]): 61

Molecule: NCCCC[C@@H](C(N)=O)N1CCCc2cn(nn2)-c2ccc(cc2)C[C@H](NC(=O)[C@@H](N)COP(=O)(O)O)C(=O)N[C@@H](CO)CC(=O)NCCC(=O)N[C@@H](Cc2ccc([N+](=O)[O-])cc2)C1=O [Macrocycle 3]
ΔS (14-3-3γ [1]): 5.9 ± 0.89 cal/(mol·K)
ΔG (14-3-3γ [1]): -9.24 ± 0.028 kcal/mol
ΔH (14-3-3γ [1]): -7.5 ± 0.70 kcal/mol
α1 (14-3-3/ChREBP complex; replicate 1): 11.7
α1 (14-3-3/ChREBP complex; replicate 2): 11
α (14-3-3/ChREBP complex; [5]): 12.3
α (14-3-3/ChREBP complex; [6]): 11
Kd (14-3-3γ [2]; KD, kinetic fit, SPR, 1:1 model, 25 °C, pH 7.4, average ± SD, n=2, SD): 0.23 µM
KD, affinity fit (14-3-3γ [2]; 25 °C, pH 7.4, replicate 1): 0.228 µM
KD, affinity fit (14-3-3γ [2]; 25 °C, pH 7.4, replicate 2): 0.253 µM
ka, kinetic fit (14-3-3γ [2]; [7]): 629000 M⁻¹ s⁻¹
kd, kinetic fit (14-3-3γ [2]; [8]): 0.13 ± 0.01 s⁻¹
KD, kinetic fit (14-3-3γ [2]; [9]): 0.22 µM
kd, kinetic fit (14-3-3γ [2]; [9]): 0.1384 s⁻¹
KD, kinetic fit (14-3-3γ [2]; [10]): 0.233 µM
ka, kinetic fit (14-3-3γ [2]; [10]): 556000 M⁻¹ s⁻¹
kd, kinetic fit (14-3-3γ [2]; [10]): 0.1296 s⁻¹
kon (14-3-3γ [2]; SD): 590000 M⁻¹ s⁻¹

Molecule: NCCCC[C@@H](C(N)=O)N1CCCCc2cn(nn2)-c2ccc(cc2)C[C@H](NC(=O)[C@@H](N)COP(=O)(O)O)C(=O)N[C@@H](CO)CC(=O)NCCC(=O)N[C@@H](Cc2ccc([N+](=O)[O-])cc2)C1=O [Macrocycle 4]
ΔS (14-3-3γ [1]): 2.9 ± 0.78 cal/(mol·K)
ΔG (14-3-3γ [1]): -8.15 ± 0.10 kcal/mol
ΔH (14-3-3γ [1]): -7.4 ± 0.44 kcal/mol
α1 (14-3-3/ChREBP complex; replicate 1): 11.8
α1 (14-3-3/ChREBP complex; replicate 2): 13.5
α (14-3-3/ChREBP complex; [5]): 42.5
α (14-3-3/ChREBP complex; [6]): 41.3
Kd (14-3-3/ChREBP complex; [5]): 5 µM
Kd (14-3-3/ChREBP complex; [6]): 5 µM
KD, affinity fit (14-3-3γ [2]; 25 °C, pH 7.4, replicate 1): 1.18 µM
KD, affinity fit (14-3-3γ [2]; 25 °C, pH 7.4, replicate 2): 1.13 µM
ka, kinetic fit (14-3-3γ [2]; [7]): 282000 M⁻¹ s⁻¹
kd, kinetic fit (14-3-3γ [2]; [8]): 0.31 ± 0.01 s⁻¹
KD, kinetic fit (14-3-3γ [2]; [9]): 1.14 µM
kd, kinetic fit (14-3-3γ [2]; [9]): 0.3198 s⁻¹
KD, kinetic fit (14-3-3γ [2]; [10]): 1.03 µM
ka, kinetic fit (14-3-3γ [2]; [10]): 290000 M⁻¹ s⁻¹
kd, kinetic fit (14-3-3γ [2]; [10]): 0.2988 s⁻¹
association rate (k on) fold increase compared to pepD (14-3-3γ [2]; SPR, 14-3-3γ): 3.5 fold
kon (14-3-3γ [2]; SD): 290000 M⁻¹ s⁻¹

Molecule: Ac-RDKIRLNNAIWRAWYIQYVKRRKSPV-NH2 [ChREBP, acetylated ChREBP peptide purchased from GenScript, 14-3-3 client peptide]
effect of client peptide on 14-3-3β/macrocycle complex [4]: Stabilization

The remaining lines, values ahead:

EC50 (14-3-3β): 2 µM
cooperativity (α) factor (14-3-3/ChREBP complex): 42 ± 1
Molecule: NCCCC[C@@H](C(=O)NCCC(=O)N[C@@H](CCCCNC(=S)Nc1ccc2c(c1)C(=O)OC21c2ccc(O)cc2Oc2cc(O)ccc21)C(N)=O)N1CCCCc2cn(nn2)-c2ccc(cc2)C[C@H](NC(=O)[C@@H](N)COP(=O)(O)O)C(=O)N[C@@H](CO)CC(=O)NCCC(=O)N[C@@H](Cc2ccc([N+](=O)[O-])cc2)C1=O [Macrocycle F4]

Kd (14-3-3γ [3]): 0.23 ± 0.06 µM
cooperativity (α) factor (14-3-3/ChREBP complex): 12 ± 1
Molecule: NCCCC[C@@H](C(=O)NCCC(=O)N[C@@H](CCCCNC(=S)Nc1ccc2c(c1)C(=O)OC21c2ccc(O)cc2Oc2cc(O)ccc21)C(N)=O)N1CCCc2cn(nn2)-c2ccc(cc2)C[C@H](NC(=O)[C@@H](N)COP(=O)(O)O)C(=O)N[C@@H](CO)CC(=O)NCCC(=O)N[C@@H](Cc2ccc([N+](=O)[O-])cc2)C1=O [Macrocycle F3]

EC50 (14-3-3β): 7 µM
Molecule: NCCCC[C@@H](C(=O)NCCC(=O)N[C@@H](CCCCNC(=S)Nc1ccc2c(c1)C(=O)OC21c2ccc(O)cc2Oc2cc(O)ccc21)C(N)=O)N1CCc2cn(nn2)-c2ccc(cc2)C[C@H](NC(=O)[C@@H](N)COP(=O)(O)O)C(=O)N[C@@H](CO)CC(=O)NCCC(=O)N[C@@H](Cc2ccc([N+](=O)[O-])cc2)C1=O [Macrocycle F2]

α1 (14-3-3/ChREBP complex; replicate 1): 82.8
α1 (14-3-3/ChREBP complex; replicate 2): 85.4
α (14-3-3/ChREBP complex; [5]): 314
α (14-3-3/ChREBP complex; [6]): 363
cooperativity (α) factor (14-3-3/ChREBP complex): 339 ± 35
Molecule: NCCCC[C@@H](C(=O)NCCC(=O)N[C@@H](CCCCNC(=S)Nc1ccc2c(c1)C(=O)OC21c2ccc(O)cc2Oc2cc(O)ccc21)C(N)=O)N1Cc2cn(nn2)-c2ccc(cc2)C[C@H](NC(=O)[C@@H](N)COP(=O)(O)O)C(=O)N[C@@H](CO)CC(=O)NCCC(=O)N[C@@H](Cc2ccc([N+](=O)[O-])cc2)C1=O [Macrocycle F1]
